One molecule from US7259004B1, “Endophytic streptomycetes from higher plants with biological activity” (Montana State University, priority 2002, dated 2007) can be followed below.

For test [1], the system named is Staphylococcus aureus (MRSA) ATCC 33591. The experiment in a line: disk diffusion assay. The following applies: MHA 35° C.
Test [2] deals with Pseudomonas aeruginosa ATCC 27853. The experiment in a line: disk diffusion assay. It counts as cell-based. The conditions noted are these: kakadumycin B at 10 μg; control antibiotic; MHA 35° C. On the technique in general: A growth-free zone around the sample is the usual read-out of agar diffusion tests.
Test [3] deals with Acinetobacter sp. ATCC 49137. The experiment in a line: disk diffusion assay. It counts as cell-based.
In test [4] the test system is Streptococcus pneumoniae ATCC 49619. The experiment in a line: disk diffusion assay. The class given is cell-based. The following applies: kakadumycin B at 10 μg; control antibiotic; MHA w/5% dsb 35° C. w/5% CO2.
Test [5] relates to Enterococcus faecium ATCC 51559. The experiment in a line: disk diffusion assay. The conditions noted are these: 10 micrograms per disk; ciprofloxacin 5, vancomycin 30 micrograms per disk; 35° C. It counts as cell-based.
In test [6] the test system is Bacillus anthracis K8902. The class given is cell-based. The following applies: 10 micrograms per disk; ciprofloxacin 5, vancomycin 30 micrograms per disk; 35° C.
Test [7] concerns DNA synthesis in Bacillus subtilis. The test is described as follows: macromolecular synthesis whole cell assay, [3H]thymidine incorporation. It counts as cell-based. The conditions noted are these: 1×MIC.
In test [8] the test system is Klebsiella pneumoniae ATCC 10031. The test is described as follows: disk diffusion assay. The following applies: MHA 35° C.
Test [9] deals with Enterococcus faecalis ATCC 51299. The experiment in a line: disk diffusion assay. The class given is cell-based.
Test [10] relates to Burkholderia cepacia ATCC 25416. The experiment in a line: disk diffusion assay. The conditions noted are these: kakadumycin B at 10 μg; control antibiotic; MHA 35° C.
Test [11] deals with Enterococcus faecium ATCC 49624. The experiment in a line: disk diffusion assay. It counts as cell-based. The conditions noted are these: 10 micrograms per disk; ciprofloxacin 5, vancomycin 30 micrograms per disk; 35° C.
Test [12] concerns Shigella dysenteriae ATCC 11835. The experiment in a line: disk diffusion assay. It counts as cell-based. The conditions noted are these: kakadumycin B at 10 μg; control antibiotic; MHA 35° C.
The mark [13] stands for this setting: A3-5-1 10 micrograms, Cip 5 micrograms.
The mark [14] stands for this setting: kakadumycin B at 10 μg, control antibiotic.
Where [15] appears, read: kakadumycin B at 10 μg, control antibiotic, MHA 35° C.

`O=C(O)c1cn(C2CC2)c2cc(N3CCNCC3)c(F)cc2c1=O` [Ciprofloxacin, reference compound]: the “Disk Diffusion, Staphylococcus aureus (MRSA) 33591” value in test [1] (setting [13]) is recorded as “Cip (5 micro-)-26 mm”; in [1] (setting [14]), 27 mm (cipro). Moreover, the “Disk Diffusion, Pseudomonas aeruginosa 27853” value in [2] is 30 mm (cipro). In addition, the “diameter of the zone of inhibition, Acinetobacter sp. ATCC 49137” value in [3] (10 micrograms per disk, ciprofloxacin 5, vancomycin 30 micrograms per disk, grown at 30° C.) was found to be 29 mm. In test [3] (setting [15]), the “Disk Diffusion, Acinetobacter spp. 49137” value was 26 mm (cipro). Further, the “Disk Diffusion, Streptococcus pneumoniae 49619” value in [4] is reported as 24 mm (cipro). In [5], the “diameter of the zone of inhibition, Enterococcus faecium ATCC 51559” value was 13 mm. Further, in test [6], the “diameter of the zone of inhibition, Bacillus anthracis K8902” value is reported as 16 mm. The entries for the “% [3H]thymidine (DNA synthesis) incorporation of that of the untreated culture” value in test [7] (5 min) and in test [7] (10 min) were 36% and 35%, respectively. For the same molecule, the “Disk Diffusion, Klebsiella pneumoniae 10031” value in test [8] (setting [13]) was “Cip (5 micro-)-34 mm”; in test [8] (setting [14]) it was 32 mm (cipro). Further, in [9] (10 micrograms per disk, ciprofloxacin 5, vancomycin 30 micrograms per disk, 35° C.), the “diameter of the zone of inhibition, Enterococcus faecalis ATCC 51299” value amounted to 22 mm. Moreover, in test [9] (setting [15]), the “Disk Diffusion, Enterococcus faccalis (VRE) 51299” value is listed as 23 mm (cipro). Besides, in [10], the “Disk Diffusion, Burkholderia cepacia 25416” value is on record as 24 mm (cipro). Also, in test [11], the “diameter of the zone of inhibition, Enterococcus faecium ATCC 49624” value turned out to be 15 mm. For the same molecule, in test [12], the “Disk Diffusion, Shigella dysenteriae 11835” value is listed as 24 mm (cipro).
